Assay [1] can be described thus: Trypanosoma cruzi growth suppression in host cells – NIH3T3 host cells, beta-gal luminescence, confirmation (AID 2044).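 Also: intracellular parasites grown in NIH/3T3 mouse fibroblasts as host cells; luminescent beta-galactosidase reporter signal from transgenic T. cruzi replicating inside host cells; inhibitors lower the luminescence signal.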 Type of assay: functional, cell-based.
Assay [2] can be described thus: NIH3T3 cell viability loss – ATP luminescence, mouse fibroblasts, counter-screen, dose response (AID 2010).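 Also: cells exposed to compound for about 90 hours before reading.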 It is filed as functional, cell-based.
Assay [3] in a line: Luminescence Cell-Based Dose Confirmation to Identify Activators of 5'UTR Stem-Loop Driven Alpha-Synuclein mRNA Translation in H4 Neuroglioblastoma Cells. [Related pubchem assays: 1829 (Project Summary), 1814 (Primary HTS)]. It is filed as functional.
Assay [4] is described as follows: Luminescence Cell-Based Dose Response HTS to Identify Activators of Luciferase Translation or Activity in H4 […] Cells. [Related pubchem assays: 1829 (Project Summary), 1814 (Primary HTS)]. It is filed as functional.
Assay [5] can be described thus: Luminescence Cell-Based Dose Response to Identify Activators of Luciferase Translation or Activity in H4-C Neuroglioblastoma Cells. [Related pubchem assays: 1829 (Project Summary), 1814 (Primary HTS)]. It is filed as functional.
A short description of assay [6]: Luminescence Cell-Based Dose Response to Identify Activators of 5'UTR Stem-Loop Driven Prion Protein mRNA Translation in H4-C Neuroglioblastoma Cells. [Related pubchem assays: 1829 (Project Summary), 1814 (Primary HTS)]. It is filed as functional.
The subject of another assay is H4. The experiment in a line: Luminescence Cell-Based Dose Response HTS to Identify Activators of 5'UTR Stem-Loop Driven Prion Protein mRNA Translation in H4 Neuroglioblastoma Cells. [Related pubchem assays: 1829 (Project Summary), 1814 (Primary HTS)]. Type of assay: functional. The following applies: Homo sapiens.
The nature of assay [7]: Luminescence Cell-Based Dose Confirmation HTS to Identify Activators of 5'UTR Stem-Loop Driven Alpha-Synuclein mRNA Translation in H4 Neuroglioblastoma Cells. [Related pubchem assays: 1829 (Project Summary), 1814 (Primary HTS)]. It is filed as functional.
Assay [8] is described as follows: M. tuberculosis H37Rv growth inhibitors, H37Rv strain (AID 1626). It is filed as functional.
For assay [9], the target named is T1, Calpain-2 catalytic subunit (Sus scrofa, UniProt P43367).
T1 sequence (P43367 whole entry): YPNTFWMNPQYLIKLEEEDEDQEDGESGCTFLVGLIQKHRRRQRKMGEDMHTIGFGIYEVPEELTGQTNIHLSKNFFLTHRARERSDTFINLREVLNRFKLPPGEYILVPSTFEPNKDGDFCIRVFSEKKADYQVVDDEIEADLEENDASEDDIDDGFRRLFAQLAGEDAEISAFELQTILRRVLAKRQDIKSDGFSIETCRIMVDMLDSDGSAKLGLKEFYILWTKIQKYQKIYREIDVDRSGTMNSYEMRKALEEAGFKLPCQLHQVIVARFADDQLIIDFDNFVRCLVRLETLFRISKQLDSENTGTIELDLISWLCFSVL
The assay is described as follows: m-calpain protease blockers, concentration series – biochemical, fluorogenic peptide substrate, dose response (AID 1420). Type of assay: functional.

In assay [10] the target is NAD-dependent protein deacylase sirtuin-5, mitochondrial (Homo sapiens, UniProt Q9NXA8). The assay is described as follows: sirtuin-5 deacylation blockers, concentration series – biochemical, fluorescence imaging, cherry-pick, set 5, dose response (AID 720591).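 Also: desuccinylation of succinyl peptide AMC substrate read as fluorescence after trypsin release; potency of inhibitors that lower fluorescence and may act on trypsin instead.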
Assay [11] deals with T2, Carboxy-terminal domain RNA polymerase II polypeptide A small phosphatase 1 (Homo sapiens, UniProt Q9GZU7).
T2 sequence (Q9GZU7 whole entry): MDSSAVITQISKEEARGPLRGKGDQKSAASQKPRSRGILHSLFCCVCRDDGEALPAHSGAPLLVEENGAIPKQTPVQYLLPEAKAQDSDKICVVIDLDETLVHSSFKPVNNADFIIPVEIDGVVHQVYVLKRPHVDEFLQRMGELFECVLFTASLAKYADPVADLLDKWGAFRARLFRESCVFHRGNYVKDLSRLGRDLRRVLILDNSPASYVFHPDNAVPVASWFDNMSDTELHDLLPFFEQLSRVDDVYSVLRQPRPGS
The assay is described as follows: CTDSP1 inhibitors, concentration-response, biochemical, absorbance readout, ultra-high-throughput screen actives (AID 540297). Type of assay: functional.

Assay [12] is described as follows: toxicity to human hepatoma HepG2 cells – cell-based, cherry-picked samples, cytotoxicity control, dose response (AID 1159577). Type of assay: functional.
Assay [13] can be described thus: P. falciparum Dd2 growth inhibitors, dose response, SYBR Green, cherry-picked samples (AID 1159567). It is filed as functional, cell-based.
Assay [14] has as its target E3 ubiquitin-protein ligase Mdm2 (Homo sapiens, UniProt Q00987). The experiment in a line: MDM2-luc reporter signal enhancers, multi-concentration potency testing, MDM2 ubiquitin-protein ligase inhibitor program, whole-cell format, luminescence detection, 384-well microplate (AID 1394).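 Also: MDM2 E3 inhibitors raise luminescence so EC50 is for signal enhancement.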 Type of assay: functional.
Another assay addresses Cytochrome P450 3A4 (Homo sapiens, UniProt P08684). The following applies: Potency.
For assay [15], the target named is T3, Tyrosine-protein phosphatase non-receptor type 7 (Homo sapiens, UniProt P35236).
T3 sequence (P35236 whole entry): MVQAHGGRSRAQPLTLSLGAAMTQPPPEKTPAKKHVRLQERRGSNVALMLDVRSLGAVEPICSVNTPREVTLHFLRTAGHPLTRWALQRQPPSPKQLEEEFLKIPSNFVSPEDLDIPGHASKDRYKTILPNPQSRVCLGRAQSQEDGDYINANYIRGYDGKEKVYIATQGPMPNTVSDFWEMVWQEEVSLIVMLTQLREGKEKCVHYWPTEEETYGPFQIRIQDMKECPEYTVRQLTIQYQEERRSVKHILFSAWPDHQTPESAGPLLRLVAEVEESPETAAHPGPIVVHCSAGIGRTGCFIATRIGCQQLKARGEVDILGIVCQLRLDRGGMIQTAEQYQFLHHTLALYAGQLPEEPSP
The experiment in a line: HePTP tyrosine phosphatase activity blockers – biochemical, absorbance, leukemia target, primary screen (AID 521). It is filed as functional.

The nature of assay [16]: toxicity to human HepG2 hepatoma cells – cell-based, plate reader, dry powder samples, cytotoxicity control, dose response (AID 1159569).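 Also: inhibitor potency with signal falling toward the positive control level.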 Type of assay: functional.
Assay [17] can be described thus: growth inhibition of PfATP4-mutant resistant parasites – NITD609-resistant line, SYBR Green, dry powder, dose response (AID 1159571).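 Also: parasites synchronized at ring stage by sorbitol before testing.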 It is filed as functional, cell-based.
Assay [18] is described as follows: Dd2 malaria parasite growth inhibition potency – SYBR Green, dry powder samples, dose response (AID 1159566).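 Also: potency for growth inhibition with lower SYBR green DNA signal.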 Type of assay: functional, cell-based.
Assay [19] can be described thus: growth inhibition of yeast DHODH-expressing 3D7 parasites – SYBR Green, dry powder samples, dose response (AID 1159570).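 Also: parasite growth measured after 72 hours of compound exposure.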 It is filed as functional, cell-based.
Assay [20] concerns the target Voltage-dependent T-type calcium channel subunit alpha-1H (Homo sapiens, UniProt O95180). It is filed as functional.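 Also: channel activity triggered by adding a high calcium stimulation buffer.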
Another assay addresses Protein Wnt-3a (Mus musculus, UniProt P27467). The assay is described as follows: antagonism of Wnt3a pathway luciferase reporter – Wnt-LIGHT cells, luminescence, selectivity assay for Gli-SUFU antagonist project, dose response (AID 651570).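 Also: Wnt-LIGHT reporter cells stimulated with conditioned medium from Wnt3a-producing cells.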 Type of assay: functional. The note with it: read-out: IC50_Mean. Background: Reporter assays use an easily measured gene product as a stand-in for the process of interest.

The next assay has as its target Paired box protein Pax-8 (Homo sapiens, UniProt Q06710). The assay is described as follows: PAX8 transcriptional activity inhibition in RMG-I – RMG-I cells, luciferase, cherry-pick, dose response (AID 687027).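 Also: luciferase reporter driven by Pax8 target thyroperoxidase promoter measured by SteadyGlo luminescence.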 It is filed as functional, cell-based.
Assay [21] deals with T4, Rac GTPase-activating protein 1 (Homo sapiens, UniProt Q9H0H5).
T4 sequence (Q9H0H5 whole entry): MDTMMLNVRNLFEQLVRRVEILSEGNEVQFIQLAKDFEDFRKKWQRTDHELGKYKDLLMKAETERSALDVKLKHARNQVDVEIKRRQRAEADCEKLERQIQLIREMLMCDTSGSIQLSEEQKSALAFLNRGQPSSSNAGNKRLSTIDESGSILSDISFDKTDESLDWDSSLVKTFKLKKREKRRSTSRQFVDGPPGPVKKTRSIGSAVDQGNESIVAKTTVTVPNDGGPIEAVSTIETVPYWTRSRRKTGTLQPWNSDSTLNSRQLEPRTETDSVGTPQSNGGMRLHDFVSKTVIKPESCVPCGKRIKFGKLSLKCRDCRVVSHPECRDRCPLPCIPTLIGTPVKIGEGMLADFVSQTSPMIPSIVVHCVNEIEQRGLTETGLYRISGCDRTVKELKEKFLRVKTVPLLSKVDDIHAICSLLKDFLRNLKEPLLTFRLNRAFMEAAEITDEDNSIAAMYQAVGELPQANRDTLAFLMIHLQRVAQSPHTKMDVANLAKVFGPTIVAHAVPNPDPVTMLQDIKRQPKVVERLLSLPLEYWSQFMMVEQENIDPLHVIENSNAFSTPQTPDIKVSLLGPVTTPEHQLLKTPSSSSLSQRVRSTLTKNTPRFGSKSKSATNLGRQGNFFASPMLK
The experiment in a line: blockers of MgcRacGAP-driven Rac1 GTP hydrolysis – biochemical, ADP Hunter fluorescence, primary and confirmatory, confirmation (AID 624330). Type of assay: functional.

The source made the active and inactive calls.

Chain of NAD-dependent protein deacylase sirtuin-5, mitochondrial (Q9NXA8 whole entry, the tested form may be a part): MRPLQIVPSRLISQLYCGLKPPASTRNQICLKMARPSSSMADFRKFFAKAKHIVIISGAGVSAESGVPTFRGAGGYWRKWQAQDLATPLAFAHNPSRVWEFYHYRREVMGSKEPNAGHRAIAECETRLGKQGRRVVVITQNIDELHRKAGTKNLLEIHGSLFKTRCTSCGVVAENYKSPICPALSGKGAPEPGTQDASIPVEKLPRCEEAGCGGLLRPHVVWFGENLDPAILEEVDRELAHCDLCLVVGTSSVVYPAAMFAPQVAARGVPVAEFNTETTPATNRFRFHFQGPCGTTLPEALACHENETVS
Chain of Cytochrome P450 3A4 (P08684 whole entry): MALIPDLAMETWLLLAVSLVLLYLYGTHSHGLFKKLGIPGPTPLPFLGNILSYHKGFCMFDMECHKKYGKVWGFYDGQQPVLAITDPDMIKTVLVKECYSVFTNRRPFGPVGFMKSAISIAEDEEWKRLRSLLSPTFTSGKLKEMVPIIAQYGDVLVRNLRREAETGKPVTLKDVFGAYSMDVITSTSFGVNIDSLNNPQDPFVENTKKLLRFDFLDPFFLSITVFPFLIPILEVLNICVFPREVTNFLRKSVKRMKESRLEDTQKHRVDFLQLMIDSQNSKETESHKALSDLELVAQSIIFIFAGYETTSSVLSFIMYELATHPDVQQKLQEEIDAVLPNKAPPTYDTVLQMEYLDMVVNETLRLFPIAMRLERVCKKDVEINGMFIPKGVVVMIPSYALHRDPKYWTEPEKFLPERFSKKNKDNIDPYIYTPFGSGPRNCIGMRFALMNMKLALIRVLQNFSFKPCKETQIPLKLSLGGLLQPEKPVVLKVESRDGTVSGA
Chain of Voltage-dependent T-type calcium channel subunit alpha-1H (O95180 whole entry): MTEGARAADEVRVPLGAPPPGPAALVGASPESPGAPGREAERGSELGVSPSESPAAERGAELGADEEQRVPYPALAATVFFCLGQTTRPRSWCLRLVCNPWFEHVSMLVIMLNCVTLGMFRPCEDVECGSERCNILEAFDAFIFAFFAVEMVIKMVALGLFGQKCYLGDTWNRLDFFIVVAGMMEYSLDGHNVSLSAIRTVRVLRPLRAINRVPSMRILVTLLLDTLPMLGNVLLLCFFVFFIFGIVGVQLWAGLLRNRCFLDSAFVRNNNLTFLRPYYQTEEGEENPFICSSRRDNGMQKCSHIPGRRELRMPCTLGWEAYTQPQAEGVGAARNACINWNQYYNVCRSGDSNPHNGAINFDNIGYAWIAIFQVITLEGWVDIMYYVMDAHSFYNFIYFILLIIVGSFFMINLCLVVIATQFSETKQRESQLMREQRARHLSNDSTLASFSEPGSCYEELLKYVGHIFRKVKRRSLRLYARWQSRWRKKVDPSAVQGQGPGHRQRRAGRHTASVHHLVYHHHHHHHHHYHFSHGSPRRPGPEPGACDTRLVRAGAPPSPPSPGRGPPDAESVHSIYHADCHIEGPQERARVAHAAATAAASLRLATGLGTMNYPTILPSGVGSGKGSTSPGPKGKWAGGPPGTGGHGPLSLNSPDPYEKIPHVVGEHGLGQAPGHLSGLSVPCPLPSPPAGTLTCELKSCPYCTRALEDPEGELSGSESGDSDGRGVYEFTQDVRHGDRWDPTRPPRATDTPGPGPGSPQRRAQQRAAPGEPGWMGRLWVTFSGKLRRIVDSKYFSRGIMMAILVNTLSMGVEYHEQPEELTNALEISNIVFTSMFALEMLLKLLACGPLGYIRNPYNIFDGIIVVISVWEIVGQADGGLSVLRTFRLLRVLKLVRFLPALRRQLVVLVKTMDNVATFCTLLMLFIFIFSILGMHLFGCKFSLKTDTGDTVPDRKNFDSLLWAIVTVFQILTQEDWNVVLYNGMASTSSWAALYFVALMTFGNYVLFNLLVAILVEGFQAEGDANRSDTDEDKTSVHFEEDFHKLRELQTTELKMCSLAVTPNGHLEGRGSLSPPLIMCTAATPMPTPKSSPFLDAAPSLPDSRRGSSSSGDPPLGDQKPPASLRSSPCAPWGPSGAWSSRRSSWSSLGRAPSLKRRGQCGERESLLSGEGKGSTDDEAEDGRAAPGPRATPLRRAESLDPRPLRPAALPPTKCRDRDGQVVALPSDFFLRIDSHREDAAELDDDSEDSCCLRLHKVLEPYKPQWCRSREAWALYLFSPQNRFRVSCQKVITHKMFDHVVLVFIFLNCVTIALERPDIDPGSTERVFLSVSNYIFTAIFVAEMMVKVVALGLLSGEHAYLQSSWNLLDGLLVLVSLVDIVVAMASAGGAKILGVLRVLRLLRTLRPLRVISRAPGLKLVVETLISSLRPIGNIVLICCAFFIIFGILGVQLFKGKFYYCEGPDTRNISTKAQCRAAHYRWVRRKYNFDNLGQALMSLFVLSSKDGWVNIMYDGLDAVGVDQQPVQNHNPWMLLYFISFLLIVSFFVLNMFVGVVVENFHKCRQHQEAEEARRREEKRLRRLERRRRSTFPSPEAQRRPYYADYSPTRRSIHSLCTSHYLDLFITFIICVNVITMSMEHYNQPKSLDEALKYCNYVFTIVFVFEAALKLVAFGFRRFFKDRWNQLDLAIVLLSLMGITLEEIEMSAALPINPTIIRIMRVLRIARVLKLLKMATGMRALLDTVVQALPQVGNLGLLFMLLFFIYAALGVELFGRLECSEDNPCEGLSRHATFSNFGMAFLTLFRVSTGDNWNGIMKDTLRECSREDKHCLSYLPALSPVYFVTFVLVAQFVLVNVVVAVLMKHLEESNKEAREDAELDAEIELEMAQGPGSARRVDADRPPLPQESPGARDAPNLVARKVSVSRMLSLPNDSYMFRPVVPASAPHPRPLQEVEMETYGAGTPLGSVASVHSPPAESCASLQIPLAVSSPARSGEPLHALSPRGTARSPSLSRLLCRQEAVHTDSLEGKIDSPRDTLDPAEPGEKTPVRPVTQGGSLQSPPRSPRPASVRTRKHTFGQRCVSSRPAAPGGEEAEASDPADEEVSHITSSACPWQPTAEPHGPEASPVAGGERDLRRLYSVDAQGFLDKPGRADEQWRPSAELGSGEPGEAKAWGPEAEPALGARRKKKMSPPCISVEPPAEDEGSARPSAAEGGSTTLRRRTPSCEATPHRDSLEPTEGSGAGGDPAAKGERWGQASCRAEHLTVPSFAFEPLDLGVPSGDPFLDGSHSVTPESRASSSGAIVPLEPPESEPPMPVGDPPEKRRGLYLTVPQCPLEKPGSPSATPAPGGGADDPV
Chain of E3 ubiquitin-protein ligase Mdm2 (Q00987 whole entry): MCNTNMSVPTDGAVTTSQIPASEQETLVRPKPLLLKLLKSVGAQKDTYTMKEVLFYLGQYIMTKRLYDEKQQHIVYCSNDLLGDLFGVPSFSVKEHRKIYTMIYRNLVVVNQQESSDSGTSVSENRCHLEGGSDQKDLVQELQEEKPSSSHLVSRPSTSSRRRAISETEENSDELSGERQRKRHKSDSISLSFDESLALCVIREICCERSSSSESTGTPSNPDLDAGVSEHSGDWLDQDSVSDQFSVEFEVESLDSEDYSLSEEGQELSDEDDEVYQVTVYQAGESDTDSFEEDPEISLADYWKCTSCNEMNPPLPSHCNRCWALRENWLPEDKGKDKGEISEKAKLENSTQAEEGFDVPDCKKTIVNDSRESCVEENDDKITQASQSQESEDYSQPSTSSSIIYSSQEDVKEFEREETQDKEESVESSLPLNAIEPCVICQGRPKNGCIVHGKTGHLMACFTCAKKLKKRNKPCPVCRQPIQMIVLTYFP
Chain of Paired box protein Pax-8 (Q06710 whole entry): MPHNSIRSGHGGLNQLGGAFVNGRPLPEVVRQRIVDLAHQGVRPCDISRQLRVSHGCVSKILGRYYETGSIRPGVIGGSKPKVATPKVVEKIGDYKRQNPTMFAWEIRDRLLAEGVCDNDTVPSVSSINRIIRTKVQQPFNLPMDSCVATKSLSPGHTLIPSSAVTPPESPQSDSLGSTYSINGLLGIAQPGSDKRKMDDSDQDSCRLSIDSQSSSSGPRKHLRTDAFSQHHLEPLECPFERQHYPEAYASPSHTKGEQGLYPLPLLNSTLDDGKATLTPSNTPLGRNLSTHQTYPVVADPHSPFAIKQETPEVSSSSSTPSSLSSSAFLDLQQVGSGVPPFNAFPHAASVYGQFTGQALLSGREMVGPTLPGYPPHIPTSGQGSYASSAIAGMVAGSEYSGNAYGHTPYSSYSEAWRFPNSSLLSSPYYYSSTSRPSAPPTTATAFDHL
Chain of Protein Wnt-3a (P27467 whole entry): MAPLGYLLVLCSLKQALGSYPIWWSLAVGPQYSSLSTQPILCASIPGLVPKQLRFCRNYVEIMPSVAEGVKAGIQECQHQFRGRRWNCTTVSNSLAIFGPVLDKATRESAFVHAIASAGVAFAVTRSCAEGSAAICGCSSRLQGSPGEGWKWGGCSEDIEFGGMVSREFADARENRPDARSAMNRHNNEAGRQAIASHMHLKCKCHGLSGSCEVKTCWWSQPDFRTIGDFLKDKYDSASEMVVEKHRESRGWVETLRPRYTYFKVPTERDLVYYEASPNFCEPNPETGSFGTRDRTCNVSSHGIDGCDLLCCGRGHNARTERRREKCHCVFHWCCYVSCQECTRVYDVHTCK

`CCOC(=O)c1c(NC(=O)Cn2cnc([N+](=O)[O-])n2)sc2c1CCC(C)C2` (centres undefined): the figures for the EC50 (in [1]; in assay [2]; in “cells”) were < 0.1 µM (active), > 60 µM (not active) and 0.221 µM (active), respectively.
Regarding `CC1CCc2c(sc(NC(=O)Cn3cnc([N+](=O)[O-])n3)c2C(N)=O)C1` (centres undefined), the EC50 (in general, the concentration at which the effect is half-maximal) is < 0.1 µM (active) in assay [1], > 30 µM (not active) in [2] and 0.102 µM (active) in the assay “cells”.
On to `C(=C\c1ccccc1)/CN1CCN(Cc2ccc3c(c2)OCCO3)CC1`, for which the EC50 in assay [1] was < 0.1 µM (active); in assay [2] it was > 60 µM (not active); in “cells”, 0.053 µM (active).
With `O=C(c1cc(COc2ccc(F)cc2Cl)on1)N1CCSCC1`, the EC50 in [3] was 0.63 µM (active); in assay [4], 4 µM (active); in assay [5], > 12 µM (not active); in [6], > 12 µM (not active); in the assay with H4, 0.1 µM (active); in [7] it was 0.787 µM (active).
Consider `O=C(Nc1cccnc1)c1cc2cc(Br)ccc2oc1=O`, for which the IC50 is > 100 µM (active) in assay [8] and 17.6 µM (not active) in assay [9].
As to `O=C(O)CSc1ncnc2c1sc1nc(-c3ccccc3)c3c(c12)CCC3`, the AC50 (as a rule, the concentration giving half of the maximal activity seen) in [10] was > 30 µM (inactive). Besides, the IC50 in assay [11] was 4.04 µM (active).
As to `COc1ccc(C#Cc2ccc([C@@H]3[C@@H](CO)N4CCCCN(Cc5ccccc5F)C[C@H]34)cc2)cc1`, the AC50 in assay [12] was 7.91 µM (active); in assay [13], 0.807 µM (active).
Turning to `Cc1cc(C)nc(S/C=C/C(=O)c2ccc(F)cc2)n1`, the EC50 in assay [14] was 0.81 µM (active).
In the case of `CC1(C)CC2=Nc3nc(SCCN4CCOCC4)nc(O)c3C(c3cccs3)C2=C(O)C1` (centres undefined), the EC50 in [14] is 47.7 µM (not active).
On to `Oc1ccc2c(c1)OCC1c3cc4c(cc3OC21)OCO4` (centres undefined), for which the AC50 on Cytochrome P450 3A4 was 39.8 µM (inconclusive).
Regarding `O=C(CCCn1c(=S)[nH]c2ccsc2c1=O)NCc1ccco1`, in assay [15], the IC50 was > 100 µM (not active).
For the compound `CCC(=O)Nc1ccc(NC(=O)c2ccco2)c(OC)c1`, in assay [15], the IC50 was > 100 µM (not active).
On to `CCCc1cn(CC[C@H]2CC[C@@H](NS(=O)(=O)c3ccc(-c4ccccc4)cc3)[C@@H](CO)O2)nn1`, for which the AC50 in [16] is 47.4 µM (active); in [17], 0.833 µM (active); in assay [18], 0.914 µM (active); in assay [12] it was > 39 µM (inactive); in assay [13], 0.689 µM (active); in [19], 0.963 µM (active).
Take `COc1ccc(N2Cc3ccccc3C2)cc1Cl`: the IC50 in assay [8] is > 100 µM (active).
Turning to `COC(=O)CC1C(C)(C)C2(O)OC34CC2C(=O)[C@@]1(C)C3CC[C@]1(C)C4=CC(=O)OC1c1ccoc1` (some centres undefined), the AC50 at Cytochrome P450 3A4 is 3.16 µM (inconclusive).
Consider `CCCOc1ccccc1Cn1c(=O)oc2ccc(C)cc21`, for which, in assay [20], the EC50 is 10.6 µM (active).
With `COc1ccccc1NC(=O)N1CCc2[nH]c3ccc(Cl)cc3c2C1`, the EC50 in assay [20] was 11.4 µM (active).
`CCOC(=O)N1CCN(C(=O)c2cc(COc3ccc4ncccc4c3)on2)CC1`: in assay [10], the AC50 was > 30 µM (inactive). The IC50 at Protein Wnt-3a was 0.555 µM (active).
In the case of `O=C(CCSc1ccccc1)Nc1nnc(-c2ccccc2)o1`, the IC50 in [8] is > 100 µM (active).
Regarding `CC(C)c1ccc(C(=O)NN2C(=O)C3CCCCC3C2=O)cc1` (centres undefined), the EC50 in assay [3] was 1.33 µM (active); in assay [4], 0.118 µM (active); in [5], 1.48 µM (active); in assay [6], 1.21 µM (active); in the assay with H4 it was 28.8 µM (active); in assay [7], < 0.1 µM (active).
In the case of `C=C1C2(C(=O)Nc3ccc(SC(F)F)cc3)CCC(C2)C1(C)C` (centres undefined), the IC50 in assay [8] is > 100 µM (active). For the same compound, at Paired box protein Pax-8, the AC50 was 62.8 µM (active).
Regarding `c1ccc(-n2ncc3c(N4CCC5(CC4)OCCO5)ncnc32)cc1`, the EC50 is 0.247 µM (active) in [3]; < 0.1 µM (active) in assay [4]; 0.364 µM (active) in [5]; 1.1 µM (active) in [6]; > 120 µM (not active) in the assay with H4.
`COc1ccccc1-c1c[nH]nc1-c1ccc(O)cc1O`: in assay [10], the AC50 was 21.6 µM (active). The IC50 in [21] was 42.4 µM (active).

For the origin of these results see ChEMBL document CHEMBL1201862, “PubChem BioAssay data set” (2004).
